Test results reported in the supplement of paper PMC10627819.

Key:
S. aureus DSM 20231 [1] = experiment: fitness (endpoint OD595 vs no drug) (fraction); higher = more growth
How it was run: (§1)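 Growth medium was TSB, LB Lennox or CY, and plates were kept at 37 °C. Inoculation was at OD595 0.01 in 384-well plates, at 30 µl per well or 55 µl for S. pneumoniae. OD595 was monitored every 30 min for 14 h and background-subtracted using the first reading. Fitness is the optical density on entering stationary phase divided by the robust mean of no-drug controls, with values capped at 1.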

S. aureus Newman [2] = experiment: as above
How it was run: as §1

S. pneumoniae D39V [3] = experiment: as above
How it was run: as §1

B. subtilis 168 = experiment: Bliss interaction score (quartile over a dose matrix) (fitness difference); higher = more antagonism (negative = synergy)
How it was run: (§2)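 Each OD595 reading at entry into stationary phase was scaled to the robust mean of the untreated wells on its plate, with a ceiling of 1. These ratios define fitness, and single-drug fitness was inferred from combinations. The Bliss score compares observed fitness with the product-based expectation and is reported as quartiles across all replicate types, technical, biological and donor/recipient.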

S. aureus DSM 20231 [4] = experiment: as above
How it was run: as §2

S. aureus Newman [5] = experiment: as above
How it was run: as §2

S. pneumoniae D39V [6] = experiment: as above
How it was run: as §2
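Throughout, for Bliss interaction score (quartile over a dose matrix): first quartile when negative (synergy) and third quartile when positive (antagonism).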
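Throughout, for fitness (endpoint OD595 vs no drug): OD595 on entry to stationary phase over no-drug wells; at most 1.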

C[C@@H]1O[C@@H]1P(=O)(O)O [Fosfomycin] + CN[C@H](CC(C)C)C(=O)N[C@H]1C(=O)N[C@@H](CC(N)=O)C(=O)N[C@H]2C(=O)N[C@H]3C(=O)N[C@H](C(=O)N[C@H](C(=O)O)c4cc(O)cc(O)c4-c4cc3ccc4O)[C@H](O)c3ccc(c(Cl)c3)Oc3cc2cc(c3O[C@@H]2O[C@H](CO)[C@@H](O)[C@H](O)[C@H]2O[C@H]2C[C@](C)(N)[C@H](O)[C@H](C)O2)Oc2ccc(cc2Cl)[C@H]1O [Vancomycin]
Settings	fitness
S. aureus DSM 20231 [1], first compound 0.781 µg/mL, partner 0.1875 µg/mL	0.757
S. aureus DSM 20231 [1], first compound 0.781 µg/mL, partner 0.375 µg/mL	0.751
S. aureus DSM 20231 [1], first compound 0.781 µg/mL, partner 0.75 µg/mL	0.757
S. aureus DSM 20231 [1], first compound 1.562 µg/mL, partner 0.1875 µg/mL	0.596
S. aureus DSM 20231 [1], first compound 1.562 µg/mL, partner 0.375 µg/mL	0.638
S. aureus DSM 20231 [1], first compound 1.562 µg/mL, partner 0.75 µg/mL	0.624
S. aureus DSM 20231 [1], first compound 3.124 µg/mL, partner 0.1875 µg/mL	0.525
S. aureus DSM 20231 [1], first compound 3.124 µg/mL, partner 0.375 µg/mL	0.546
S. aureus DSM 20231 [1], first compound 3.124 µg/mL, partner 0.75 µg/mL	0.542
S. aureus Newman [2], first compound 0.781 µg/mL, partner 0.1875 µg/mL	0.649
S. aureus Newman [2], first compound 0.781 µg/mL, partner 0.375 µg/mL	0.628
S. aureus Newman [2], first compound 0.781 µg/mL, partner 0.75 µg/mL	0.655
S. aureus Newman [2], first compound 1.562 µg/mL, partner 0.1875 µg/mL	0.555
S. aureus Newman [2], first compound 1.562 µg/mL, partner 0.375 µg/mL	0.563
S. aureus Newman [2], first compound 1.562 µg/mL, partner 0.75 µg/mL	0.548
S. aureus Newman [2], first compound 3.124 µg/mL, partner 0.1875 µg/mL	0.279
S. aureus Newman [2], first compound 3.124 µg/mL, partner 0.375 µg/mL	0.255
S. aureus Newman [2], first compound 3.124 µg/mL, partner 0.75 µg/mL	0.245
S. pneumoniae D39V [3], first compound 1.25 µg/mL, partner 0.03125 µg/mL	0.97
S. pneumoniae D39V [3], first compound 1.25 µg/mL, partner 0.0625 µg/mL	0.916
S. pneumoniae D39V [3], first compound 1.25 µg/mL, partner 0.125 µg/mL	0.905
S. pneumoniae D39V [3], first compound 1.25 µg/mL, partner 0.5 µg/mL	0.0887
S. pneumoniae D39V [3], first compound 2.5 µg/mL, partner 0.03125 µg/mL	0.87
S. pneumoniae D39V [3], first compound 2.5 µg/mL, partner 0.0625 µg/mL	0.869
S. pneumoniae D39V [3], first compound 2.5 µg/mL, partner 0.125 µg/mL	0.888
S. pneumoniae D39V [3], first compound 2.5 µg/mL, partner 0.5 µg/mL	0.0855
S. pneumoniae D39V [3], first compound 5 µg/mL, partner 0.03125 µg/mL	0.719
S. pneumoniae D39V [3], first compound 5 µg/mL, partner 0.0625 µg/mL	0.726
S. pneumoniae D39V [3], first compound 5 µg/mL, partner 0.25 µg/mL	0.255
S. pneumoniae D39V [3], first compound 5 µg/mL, partner 0.5 µg/mL	0.0851

Settings	Bliss interaction score
B. subtilis 168	0.029
S. aureus DSM 20231 [4]	0.0454
S. aureus Newman [5]	0.103
S. pneumoniae D39V [6]	-0.0646
